Values quoted from earlier work in paper PMC5132270 (Cancer Science, 2016).

Tests used:
[1] = tested on: models of crizotinib resistance; settings: preclinical studies

| Compound | antitumor effect [1] | median PFS (ALK+ NSCLC) [months] |
| --- | --- | --- |
| CCc1cc2c(cc1N1CCC(N3CCOCC3)CC1)C(C)(C)c1[nH]c3cc(C#N)ccc3c1C2=O [alectinib] | tumor size reduction | – |
| Cc1cc(Nc2ncc(Cl)c(Nc3ccccc3S(=O)(=O)C(C)C)n2)c(OC(C)C)cc1C1CCNCC1 [ceritinib] | – | 7.0 |
